Data: the Kinase Knowledgebase extract (Sharma et al. 2016)

Target: MAPK14 (UniProt Q16539)
Assay: p38 Kinase Inhibition Assay

MAPK14, sequence (Q16539 whole entry, looked up): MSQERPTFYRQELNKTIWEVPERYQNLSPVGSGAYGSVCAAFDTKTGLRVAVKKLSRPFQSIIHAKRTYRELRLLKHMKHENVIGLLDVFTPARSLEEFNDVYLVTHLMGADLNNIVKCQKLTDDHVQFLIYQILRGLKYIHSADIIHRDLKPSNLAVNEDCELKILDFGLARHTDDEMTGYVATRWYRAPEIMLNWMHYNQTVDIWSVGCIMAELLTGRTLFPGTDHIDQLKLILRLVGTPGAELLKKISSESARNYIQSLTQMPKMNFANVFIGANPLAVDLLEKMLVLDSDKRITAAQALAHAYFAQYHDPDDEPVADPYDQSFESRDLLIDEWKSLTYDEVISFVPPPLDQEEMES

SMILES | IC50
Nc1ccc(C(=O)N2CCC(Cc3ccccc3)CC2)cc1 | 200 to 1500 nM
O=CNc1ccc(C(=O)N2CCC(Cc3ccccc3)CC2)cc1 | 200 to 1500 nM
S=C(c1ccccc1)N1CCC(Cc2ccccc2)CC1 | 200 to 1500 nM
COc1cccc(OC)c1C(=O)N1CCC(Cc2ccccc2)CC1 | 200 to 1500 nM
CNc1ccccc1C(=O)N1CCC(Cc2ccccc2)CC1 | 200 to 1500 nM
CN(C)c1cccc(C(=O)N2CCC(Cc3ccccc3)CC2)c1 | 200 to 1500 nM
O=C(c1ccccc1Cl)N1CCC(Cc2ccccc2)CC1 | 200 to 1500 nM
Nc1ccc(C(=O)N2CCC(Cc3ccccc3)CC2)c(Cl)c1 | 200 to 1500 nM
O=C(c1ccccc1Br)N1CCC(Cc2ccccc2)CC1 | 200 to 1500 nM
CN(C)c1ccc(C(=O)N2CCC(Cc3ccccc3)CC2)cc1 | 200 to 1500 nM
COc1ccc(C(=O)N2CCC(Cc3ccccc3)CC2)c(OC)c1 | 200 to 1500 nM
CN(C)c1ccccc1C(=O)N1CCC(Cc2ccccc2)CC1 | 200 to 1500 nM
CC1(Cc2ccccc2)CCN(C(=O)c2ccccc2Br)CC1 | 200 to 1500 nM
O=C(c1ccccc1I)N1CCC(Cc2ccccc2)CC1 | 200 to 1500 nM
O=C(c1ccccc1O)N1CCC(Cc2ccccc2)CC1 | 200 to 1500 nM
O=C(c1ccccc1)N1CCC(Cc2ccccc2)CC1 | 200 to 1500 nM
CC(=O)Nc1ccc(C(=O)N2CCC(Cc3ccccc3)CC2)cc1 | 200 to 1500 nM
CN(C)c1ccc(C(=O)N2CCC(Cc3ccccc3)CC2)c(Cl)c1 | 200 to 1500 nM
Cc1ccccc1C(=O)N1CCC(Cc2ccccc2)CC1 | 200 to 1500 nM
CNc1ccc(C(=O)N2CCC(Cc3ccccc3)CC2)c(Cl)c1 | 200 to 1500 nM
